Measured values from ChEMBL document CHEMBL5137037, “Phage Display Selected Cyclic Peptide Inhibitors of Kallikrein-Related Peptidases 5 and 7 and Their In Vivo Delivery to the Skin” (J Med Chem, 2022).
Numbered stars: 1 amine (or outer) side, 2 acyl side, 3 side chain; on linkers, the order of the positions; unused ones are H or OH. Bridge positions count the residues as written; N and C are the ends. Peptide text beside a SMILES is read from it. * marks the point of attachment. Pyridine(2,6-diCH2) = c1cc(C[*:1])nc(C[*:2])c1; Pyrrolidin1yl(2S-Ac) = CC(=O)[C@@H]1CCCN1*; CH2COCH2 = O=C(C[*:1])C[*:2]

How the values were obtained:
[1] = target: Kallikrein-7 (Homo sapiens, UniProt P49862); assay: Inhibition of C-terminal poly-His-tagged human recombinant KLK7 (30 to 253 residues) transfected in CHO cells assessed as inhibition constant using KHLY-pNA as fluorogenic substrate incubated for 30 mins by fluorescence plate reader assay; type: cell-based
Kallikrein-7, sequence (P49862 whole entry, the tested form may be a part): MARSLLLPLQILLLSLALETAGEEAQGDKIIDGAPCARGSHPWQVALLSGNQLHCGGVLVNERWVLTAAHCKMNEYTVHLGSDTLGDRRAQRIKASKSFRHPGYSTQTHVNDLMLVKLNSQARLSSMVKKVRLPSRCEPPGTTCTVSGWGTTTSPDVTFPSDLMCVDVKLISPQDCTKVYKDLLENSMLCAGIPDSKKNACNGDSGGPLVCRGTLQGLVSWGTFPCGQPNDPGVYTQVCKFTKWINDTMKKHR

[2] = target: T1, Kallikrein-5 (Homo sapiens, UniProt Q9Y337); assay: Inhibition of C-terminal poly-His-tagged human recombinant KLK5 (30 to 293 residues) transfected in CHO cells assessed as inhibition constant using Boc-VPR-AMC as fluorogenic substrate incubated for 30 mins by fluorescence plate reader assay; type: cell-based
T1 sequence (Q9Y337 whole entry): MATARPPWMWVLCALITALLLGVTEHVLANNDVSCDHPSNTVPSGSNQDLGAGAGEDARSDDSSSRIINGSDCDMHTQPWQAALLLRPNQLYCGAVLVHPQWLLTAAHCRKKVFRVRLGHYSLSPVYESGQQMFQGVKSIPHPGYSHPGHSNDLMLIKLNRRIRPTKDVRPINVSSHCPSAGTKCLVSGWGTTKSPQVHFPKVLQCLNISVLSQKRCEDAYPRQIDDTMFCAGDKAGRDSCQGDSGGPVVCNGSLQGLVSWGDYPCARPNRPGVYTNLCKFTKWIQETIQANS

| SMILES | Ki [1] [nM] | other results |
| --- | --- | --- |
| CC(C)C[C@@H]1NC(=O)[C@@H](NC(=O)[C@H](CCC(N)=O)NC(=O)[C@@H]2CCCN2C(=O)[C@H](CC(N)=O)NC(=O)[C@H](C)NC(=O)[C@@H]2CSCc3cccc(n3)CSC[C@H](NC(=O)[C@H](C)N)C(=O)N[C@@H]([C@@H](C)O)C(=O)N[C@@H](CCCNC(=N)N)C(=O)N[C@@H](CCC(=O)O)C(=O)N[C@@H](Cc3ccc(O)cc3)C(=O)N[C@@H](CC(N)=O)C(=O)N3CCC[C@H]3C(=O)N[C@@H](CCC(N)=O)C(=O)N2)CSCc2cccc(n2)CSC[C@@H](C(=O)N[C@@H](Cc2cnc[nH]2)C(=O)O)NC1=O | – | Ki [2]: 6.1 nM |
| CC(C)C[C@@H]1NC(=O)[C@H](Cc2ccc(O)cc2)NC(=O)[C@H](CC(C)C)NC(=O)[C@@H](N)CSCc2cccc(n2)CSC[C@@H](C(=O)N[C@@H](CO)C(=O)O)NC(=O)[C@H](C)NC1=O (H-CLYLACS-OH; linker 1-6 via Pyridine(2,6-diCH2)) | 200 | – |
| CC(C)C[C@@H]1NC(=O)[C@@H](NC(=O)[C@@H](N)Cc2ccccc2)CSCC(=O)CSC[C@@H](C(=O)N[C@@H](CCC(N)=O)C(=O)N2CCC[C@H]2C(=O)N2CCC[C@H]2C(=O)N[C@@H](CCC(=O)O)C(=O)N[C@@H](C)C(=O)N[C@H]2CSCC(=O)CSC[C@@H](C(=O)N[C@@H](CCC(=O)O)C(=O)O)NC(=O)[C@H](CCC(N)=O)NC(=O)[C@H](CO)NC(=O)[C@@H]3CCCN3C2=O)NC(=O)[C@H](Cc2c[nH]c3ccccc23)NC(=O)[C@@H]2CCCN2C(=O)[C@H](Cc2c[nH]c3ccccc23)NC1=O (H-FCLWPWCQPPEACPSQCE-OH; linker 2-7, 13-17 via CH2COCH2) | > 1000 | – |
| CC(C)C[C@@H]1NC(=O)[C@@H](NC(=O)[C@@H]2CCCN2)CSCc2cccc(n2)CSC[C@@H](C(=O)N[C@@H](CO)C(=O)O)NC(=O)[C@H](CO)NC(=O)[C@H](CC(C)C)NC(=O)[C@H](Cc2ccccc2)NC1=O (H-PCLFLSCS-OH; linker 2-7 via Pyridine(2,6-diCH2)) | 220 | – |
| CC(C)C[C@@H]1NC(=O)[C@H](Cc2ccc(O)cc2)NC(=O)[C@H](CC(C)C)NC(=O)[C@@H](NC(=O)[C@@H]2CCCN2)CSCc2cccc(n2)CSC[C@@H](C(=O)N[C@@H](CO)C(=O)O)NC(=O)[C@H](C)NC1=O (H-PCLYLACS-OH; linker 2-7 via Pyridine(2,6-diCH2)) | 17.5 | – |
| CC(C)C[C@@H]1NC(=O)[C@H](Cc2ccc(O)cc2)NC(=O)[C@H](CC(C)C)NC(=O)[C@@H](NC(=O)[C@@H]2CCCN2)CSCC(=O)CSC[C@@H](C(=O)N[C@@H](CO)C(=O)O)NC(=O)[C@H](CCC(N)=O)NC(=O)[C@H](C)NC1=O (H-PCLYLAQCS-OH; linker 2-8 via CH2COCH2) | 36 | – |
| CC(C)C[C@@H]1NC(=O)[C@@H](NC(=O)[C@@H]2CCCN2)CSCc2cccc(n2)CSC[C@@H](C(=O)N[C@@H](CO)C(=O)O)NC(=O)[C@H]([C@@H](C)O)NC(=O)[C@H](CC(C)C)NC(=O)[C@H](Cc2ccc(O)cc2)NC1=O (H-PCLYLTCS-OH; linker 2-7 via Pyridine(2,6-diCH2)) | 52 | – |
| CC(C)C[C@@H]1NC(=O)[C@@H](NC(=O)[C@@H]2CCCN2)CSCc2cccc(n2)CSC[C@@H](C(=O)N[C@@H](CO)C(=O)O)NC(=O)[C@H](CO)NC(=O)[C@H](CCC(N)=O)NC(=O)[C@H](Cc2ccc(O)cc2)NC1=O (H-PCLYQSCS-OH; linker 2-7 via Pyridine(2,6-diCH2)) | 440 | – |
| CSCC[C@@H]1NC(=O)[C@H](Cc2ccc(O)cc2)NC(=O)[C@H](CC(C)C)NC(=O)[C@@H](NC(=O)[C@@H](N)CCC(N)=O)CSCC(=O)CSC[C@@H](C(=O)N[C@@H](CO)C(=O)N2CCC[C@H]2C(=O)N[C@H](C(=O)N[C@H]2CSCC(=O)CSC[C@@H](C(=O)N[C@@H](CCC(N)=O)C(=O)O)NC(=O)[C@H](Cc3ccc(O)cc3)NC(=O)[C@H](CCC(N)=O)NC(=O)[C@H](CCC(N)=O)NC(=O)[C@@H]3CCCN3C2=O)C(C)C)NC(=O)[C@H](CCCNC(=N)N)NC(=O)[C@H](C)NC1=O (H-QCLYMARCSPVCPQQYCQ-OH; linker 2-8, 12-17 via CH2COCH2) | 9 | – |
| CC(C)C[C@@H]1NC(=O)[C@H](Cc2ccc(O)cc2)NC(=O)[C@H](CC(C)C)NC(=O)[C@@H](NC(=O)[C@@H]2CCCN2)CSCc2cccc(n2)CSC[C@@H](C(=O)O)NC(=O)[C@H](C)NC1=O (mixture of isomers) | 19 | – |
| CC(C)C[C@@H]1NC(=O)[C@@H](NC(=O)[C@@H]2CCCN2)CSCC(=O)CSC[C@@H](C(=O)N[C@@H](CO)C(=O)O)NC(=O)[C@H](CCCNC(=N)N)NC(=O)[C@H](CO)NC(=O)[C@H](CC(C)C)NC(=O)[C@H](Cc2ccc(O)cc2)NC1=O (racemic) | – | Ki ([1]; cho): 90 nM |

Second part, led by results:

| Ki [1] [nM] | SMILES | other results |
| --- | --- | --- |
| 7 | CCCCCCCCCCCCCCCC(=O)NCCCC[C@H](NC(=O)[C@H](CCC(=O)O)NC(=O)[C@H](Cc1ccc(O)cc1)NC(=O)[C@H](CCC(=O)O)NC(=O)COCCOCCNC(=O)c1ccc(-c2c3ccc(=O)cc-3oc3cc(O)ccc23)c(C(=O)O)c1)C(=O)N[C@@H](CCC(=O)O)C(=O)N[C@@H](Cc1ccc(O)cc1)C(=O)N[C@@H](CCC(=O)O)C(=O)NCCOCCOCC(=O)NCCCC[C@H](NC(=O)CNC(=O)[C@@H]1CSCC(=O)CSC[C@H](NC(=O)[C@@H]2CCCN2)C(=O)N[C@@H](CC(C)C)C(=O)N[C@@H](Cc2ccc(O)cc2)C(=O)N[C@@H](CCCC)C(=O)N[C@@H](C)C(=O)N[C@@H](CCCNC(=N)N)C(=O)N1)C(=O)NCC(N)=O | – |
| 66 | CC[C@H](C)[C@@H]1NC(=O)[C@H](CCCNC(=N)N)NC(=O)[C@H](Cc2ccc(O)cc2)NC(=O)[C@H](CC(C)C)NC(=O)[C@@H](NC(=O)[C@H](CCC(N)=O)NC(=O)[C@@H]2CCCN2C(=O)[C@@H]2CSCc3cccc(n3)CSC[C@H](NC(=O)[C@@H](N)Cc3c[nH]cn3)C(=O)N[C@@H](CCCNC(=N)N)C(=O)N[C@@H](CCCCN)C(=O)NCC(=O)N[C@@H](CC(C)C)C(=O)N[C@@H](CC(=O)O)C(=O)N[C@@H](CCCNC(=N)N)C(=O)N2)CSCc2cccc(n2)CSC[C@@H](C(=O)N[C@@H](CO)C(N)=O)NC1=O (H-HCRKGLDRCPQCLYRICS-NH2; linker 2-9, 12-17 via Pyridine(2,6-diCH2)) | – |
| 50 | CC(=O)[C@@H]1CCCN1C(=O)[C@@H]1CSCc2cccc(n2)CSC[C@H](NC(=O)[C@@H]2CCCN2)C(=O)N[C@@H](CC(C)C)C(=O)N[C@@H](Cc2ccc(O)cc2)C(=O)N[C@@H](CC(C)C)C(=O)N[C@@H](CO)C(=O)N1 (H-PCLYLSC-{Pyrrolidin1yl(2S-Ac)}; linker 2-7 via Pyridine(2,6-diCH2)) | – |
| 29.4 | CC(C)C[C@@H]1NC(=O)[C@@H](NC(=O)[C@@H]2CCCN2)CSCc2cccc(n2)CSC[C@@H](C(=O)N[C@@H](CO)C(=O)O)NC(=O)[C@H](CO)NC(=O)[C@H](CC(C)C)NC(=O)[C@H](Cc2ccc(O)cc2)NC1=O (H-PCLYLSCS-OH; linker 2-7 via Pyridine(2,6-diCH2)) | – |
| 10.1 | CSCC[C@@H]1NC(=O)[C@H](Cc2ccc(O)cc2)NC(=O)[C@H](CC(C)C)NC(=O)[C@@H](NC(=O)[C@@H]2CCCN2)CSCC(=O)CSC[C@@H](C(=O)N[C@@H](CO)C(=O)O)NC(=O)[C@H](CCCNC(=N)N)NC(=O)[C@H](C)NC1=O (H-PCLYMARCS-OH; linker 2-8 via CH2COCH2) | – |
| 53 | CC(C)C[C@@H]1NC(=O)[C@@H](NC(=O)[C@@H]2CCCN2)CSCc2cccc(n2)CSC[C@@H](C(=O)N[C@@H](CO)C(=O)O)NC(=O)[C@H](CO)NC(=O)[C@H](CCCNC(=N)N)NC(=O)[C@H](Cc2ccc(O)cc2)NC1=O (H-PCLYRSCS-OH; linker 2-7 via Pyridine(2,6-diCH2)) | – |
| 32 | CC[C@H](C)[C@@H]1NC(=O)[C@H](Cc2ccc(O)cc2)NC(=O)[C@H](CC(C)C)NC(=O)[C@@H](NC(=O)[C@@H](N)CCC(N)=O)CSCc2cccc(n2)CSC[C@@H](C(=O)N2CCC[C@H]2C(=O)N[C@@H](CO)C(=O)N[C@@H](C)C(=O)N[C@@H](C)C(=O)N[C@@H](CCCCN)C(=O)N[C@H]2CSCc3cccc(n3)CSC[C@@H](C(=O)N[C@@H](CCC(N)=O)C(N)=O)NC(=O)CNC(=O)[C@H](CC(N)=O)NC(=O)[C@H](CC(=O)O)NC2=O)NC(=O)[C@H](C)NC1=O (H-QCLYIACPSAAKCDNGCQ-NH2; linker 2-7, 13-17 via Pyridine(2,6-diCH2)) | – |
| 94 | CSCC[C@H](NC(=O)[C@@H]1CSCc2cccc(n2)CSC[C@H](NC(=O)[C@@H](N)CCCNC(=N)N)C(=O)N[C@@H](CC(=O)O)C(=O)N[C@@H](CO)C(=O)N[C@@H](CO)C(=O)N[C@@H](CCC(N)=O)C(=O)N1)C(=O)N[C@@H](CCC(N)=O)C(=O)NCC(=O)N[C@@H](CCC(N)=O)C(=O)N[C@H]1CSCc2cccc(n2)CSC[C@@H](C(=O)N2CCC[C@H]2C(=O)O)NC(=O)[C@H](CO)NC(=O)[C@H](CCCNC(=N)N)NC(=O)[C@H](Cc2ccc(O)cc2)NC(=O)[C@H](CC(C)C)NC1=O (H-RCDSSQCMQGQCLYRSCP-OH; linker 2-7, 12-17 via Pyridine(2,6-diCH2)) | – |
| 12 | CC(C)C[C@@H]1NC(=O)[C@@H](NC(=O)C(N)CCC(N)=O)CSCc2cccc(n2)CSC[C@@H](C(=O)N[C@@H](CO)C(=O)O)NC(=O)[C@H](CO)NC(=O)[C@H](CC(C)C)NC(=O)[C@H](Cc2ccc(O)cc2)NC1=O (single isomer, unassigned) | – |
| 8.8 | CC(C)C[C@@H]1NC(=O)[C@@H](NC(=O)C(N)CCCNC(=N)N)CSCc2cccc(n2)CSC[C@@H](C(=O)N[C@@H](CO)C(=O)O)NC(=O)[C@H](CO)NC(=O)[C@H](CC(C)C)NC(=O)[C@H](Cc2ccc(O)cc2)NC1=O (single isomer, unassigned) | – |
